# Results published in paper PMC4669708 (Cell Death & Disease, 2015).
# How the values were obtained:
# Test in all cases: c-ponatinib pulldown LC-MS/MS
# Format in all cases: binding
# [1] = target: CDK8 (Homo sapiens, UniProt P49336)
# Summary of the method: (§1)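 c-Ponatinib (25 nmol) immobilized on NHS-Sepharose was incubated with 10 mg whole cell lysate per replicate, in duplicate. Eluates were reduced, alkylated, trypsin-digested and analysed by gel-free 1D LC-MS/MS. Specificity was scored from Mascot, Phenyx and spectral counts, with competition by free compound.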
# [2] = target: MAPK11 (Homo sapiens, UniProt Q15759)
# Summary of the method: as §1
# [3] = target: T1, RIPK1 (Homo sapiens, UniProt Q13546)
# T1 sequence (Q13546 1-671): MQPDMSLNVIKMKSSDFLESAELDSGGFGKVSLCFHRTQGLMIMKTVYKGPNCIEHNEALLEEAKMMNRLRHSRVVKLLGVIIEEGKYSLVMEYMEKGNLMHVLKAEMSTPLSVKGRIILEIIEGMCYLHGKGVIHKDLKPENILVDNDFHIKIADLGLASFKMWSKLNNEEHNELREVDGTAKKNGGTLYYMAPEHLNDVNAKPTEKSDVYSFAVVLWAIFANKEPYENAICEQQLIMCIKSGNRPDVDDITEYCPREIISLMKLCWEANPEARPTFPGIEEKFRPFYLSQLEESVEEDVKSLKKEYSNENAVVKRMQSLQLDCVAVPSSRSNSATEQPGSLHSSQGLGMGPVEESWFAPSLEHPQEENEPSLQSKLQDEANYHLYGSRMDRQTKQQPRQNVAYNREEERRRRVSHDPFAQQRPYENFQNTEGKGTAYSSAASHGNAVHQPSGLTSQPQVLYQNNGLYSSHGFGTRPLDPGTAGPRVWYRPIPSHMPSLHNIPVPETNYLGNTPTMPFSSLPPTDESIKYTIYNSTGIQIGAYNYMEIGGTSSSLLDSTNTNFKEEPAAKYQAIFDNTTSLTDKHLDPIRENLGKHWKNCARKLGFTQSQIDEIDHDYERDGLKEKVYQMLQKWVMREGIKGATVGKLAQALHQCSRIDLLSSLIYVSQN
# Summary of the method: as §1
# [4] = target: TUBA1B (Homo sapiens, UniProt P68363)
# Summary of the method: as §1
# [5] = target: T2, YWHAH (Homo sapiens, UniProt Q04917)
# T2 sequence (Q04917 1-246): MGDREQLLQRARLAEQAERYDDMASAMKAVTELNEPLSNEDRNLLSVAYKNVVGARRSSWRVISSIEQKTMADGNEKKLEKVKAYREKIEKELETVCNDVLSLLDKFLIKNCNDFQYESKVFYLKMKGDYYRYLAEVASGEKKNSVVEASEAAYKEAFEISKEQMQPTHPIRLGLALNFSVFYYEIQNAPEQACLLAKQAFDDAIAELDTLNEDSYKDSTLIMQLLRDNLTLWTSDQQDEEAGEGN
# Summary of the method: as §1
# MAPK11, sequence (Q15759 whole entry): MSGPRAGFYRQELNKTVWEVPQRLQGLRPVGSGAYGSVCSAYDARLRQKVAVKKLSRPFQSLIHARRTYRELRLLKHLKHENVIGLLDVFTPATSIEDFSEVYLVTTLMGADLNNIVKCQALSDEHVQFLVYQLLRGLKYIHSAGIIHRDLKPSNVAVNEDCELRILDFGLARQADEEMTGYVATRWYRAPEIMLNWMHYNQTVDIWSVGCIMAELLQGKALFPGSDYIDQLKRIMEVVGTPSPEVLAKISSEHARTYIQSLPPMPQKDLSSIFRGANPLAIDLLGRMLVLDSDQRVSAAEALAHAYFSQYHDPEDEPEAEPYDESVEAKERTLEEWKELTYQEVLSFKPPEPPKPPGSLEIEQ
# CDK8, sequence (P49336 whole entry): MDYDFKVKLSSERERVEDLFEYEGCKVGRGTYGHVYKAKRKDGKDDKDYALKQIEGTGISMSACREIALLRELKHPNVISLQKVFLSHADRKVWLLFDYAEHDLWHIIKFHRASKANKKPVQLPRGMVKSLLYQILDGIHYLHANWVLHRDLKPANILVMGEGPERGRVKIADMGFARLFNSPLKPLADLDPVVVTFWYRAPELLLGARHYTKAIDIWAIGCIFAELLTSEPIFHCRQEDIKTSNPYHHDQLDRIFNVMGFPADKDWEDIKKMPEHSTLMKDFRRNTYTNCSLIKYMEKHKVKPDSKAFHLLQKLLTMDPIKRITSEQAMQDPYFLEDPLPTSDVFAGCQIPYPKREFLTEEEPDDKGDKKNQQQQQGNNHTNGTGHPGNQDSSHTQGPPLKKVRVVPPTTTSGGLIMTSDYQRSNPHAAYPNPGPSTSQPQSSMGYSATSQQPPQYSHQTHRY
# CDK8, sequence (P24863 whole entry partner): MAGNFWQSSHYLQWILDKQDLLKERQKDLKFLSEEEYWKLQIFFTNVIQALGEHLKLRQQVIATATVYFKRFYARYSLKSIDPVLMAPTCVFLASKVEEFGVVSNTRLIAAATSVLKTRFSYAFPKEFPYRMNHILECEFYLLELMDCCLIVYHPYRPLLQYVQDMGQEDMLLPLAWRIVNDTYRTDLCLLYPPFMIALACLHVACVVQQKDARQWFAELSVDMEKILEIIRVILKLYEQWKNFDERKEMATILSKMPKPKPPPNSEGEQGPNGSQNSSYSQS
# TUBA1B, sequence (P68363 whole entry): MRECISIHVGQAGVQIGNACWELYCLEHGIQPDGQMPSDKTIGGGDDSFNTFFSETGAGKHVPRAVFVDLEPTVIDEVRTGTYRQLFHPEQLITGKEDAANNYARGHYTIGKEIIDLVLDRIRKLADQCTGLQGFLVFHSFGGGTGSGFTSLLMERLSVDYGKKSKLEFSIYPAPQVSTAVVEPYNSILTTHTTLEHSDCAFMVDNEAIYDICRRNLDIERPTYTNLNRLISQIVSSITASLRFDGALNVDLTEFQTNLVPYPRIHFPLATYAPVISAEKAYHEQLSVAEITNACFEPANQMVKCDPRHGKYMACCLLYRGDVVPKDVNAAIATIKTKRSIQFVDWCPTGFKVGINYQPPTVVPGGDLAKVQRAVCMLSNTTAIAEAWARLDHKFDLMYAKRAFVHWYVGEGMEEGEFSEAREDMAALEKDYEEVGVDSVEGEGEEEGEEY
# TUBA1B, sequence (P07437 whole entry partner): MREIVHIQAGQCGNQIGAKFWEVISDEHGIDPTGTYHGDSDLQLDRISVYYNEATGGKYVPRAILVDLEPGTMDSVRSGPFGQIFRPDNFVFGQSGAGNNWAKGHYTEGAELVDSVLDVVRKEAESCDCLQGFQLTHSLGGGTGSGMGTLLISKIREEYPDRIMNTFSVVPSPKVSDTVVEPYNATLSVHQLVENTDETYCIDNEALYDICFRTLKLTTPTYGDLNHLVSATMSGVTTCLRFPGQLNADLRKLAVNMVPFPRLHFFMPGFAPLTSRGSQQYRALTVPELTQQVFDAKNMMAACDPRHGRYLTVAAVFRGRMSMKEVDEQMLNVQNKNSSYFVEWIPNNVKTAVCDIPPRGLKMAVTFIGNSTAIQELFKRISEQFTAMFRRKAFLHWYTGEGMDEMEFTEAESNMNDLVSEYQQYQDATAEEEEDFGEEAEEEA
structure (smiles),measurement,setting,value
Cc1ccc(C(=O)Nc2ccc(CN3CCN(CCCN)CC3)c(C(F)(F)F)c2)cc1C#Cc1cnc2cccnn12 [c-ponatinib],Av. SC comp.,[1]; + free ponatinib,0
same,Total SC comp.,[1]; + free ponatinib,0
same,Av. SC,[1]; no competitor,3.75
same,Total SC,[1]; no competitor,15
same,Av. SC comp.,[2]; + free ponatinib,0
same,Total SC comp.,[2]; + free ponatinib,0
same,Av. SC,[2]; no competitor,3
same,Total SC,[2]; no competitor,12
same,Av. SC comp.,[3]; + free ponatinib,0
same,Total SC comp.,[3]; + free ponatinib,0
same,Av. SC,[3]; no competitor,1.5
same,Total SC,[3]; no competitor,6
same,Av. SC comp.,[4]; + free ponatinib,10.25
same,Total SC comp.,[4]; + free ponatinib,41
same,Av. SC,[4]; no competitor,18.5
same,Total SC,[4]; no competitor,74
same,Av. SC comp.,[5]; + free ponatinib,0.25
same,Total SC comp.,[5]; + free ponatinib,1
same,Av. SC,[5]; no competitor,6
same,Total SC,[5]; no competitor,24
